Source: article PMC7596181 (Frontiers in Immunology, 2020)

Experiments:
Assay type in all cases: cell-based
human TLR4 [1] = target: T1, human TLR4 (Homo sapiens, UniProt O00206+Q9Y6Y9); assay: Mixed agonist-antagonist dose curves at fixed ratio, human TLR4 HEK-Blue SEAP; set-up: host or cells: HEK-Blue (HEK293-derived) reporter cells
Experimental: (§1) SEAP assays were performed to evaluate the extent to which TLR4 signaling was activated in HEK-Blue reporter cells expressing mouse or human receptors (CD14, MD2 and TLR4). Reporter cells were harvested when 70–80% confluent and plated in 96-well, flat-bottom microtiter plates either 1 h, one day or two days (5 × 10^4, 4 × 10^4 or 2 × 10^4 cells/well, respectively) before addition of TLR4 agonists for 18–24 h. Culture supernatants were transferred to U-bottom microtiter plates, centrifuged and transferred again to microtiter plates to ensure reporter cells were not present. The culture supernatants were added to QUANTI-BLUE substrate following instructions provided by the manufacturer (InvivoGen cat. nos. rep-qbl or rep-qbs) and incubated at 37°C in a tissue culture incubator. At successive intervals beginning 10 min after mixing the supernatants and substrate, the plates were placed in an Emax plate reader (Molecular Devices LLC) and optical density was measured at visible light wavelength […] (OD650). The shortest incubations at which dose response curve fits produced maximal R^2 ‘goodness of fit’ values, as determined by GraphPad Prism software, were used for analysis.
Pharmacological profiles of the TLR4 reagents were generated by performing dose response curves in one of four formats. 1) Agonist potency and efficacy (EC50 and height of dose plateau, respectively) were measured by diluting TLR4 reagents successively in complete culture medium [DMEM or RPMI supplemented with fetal bovine serum (FBS) or RPMI supplemented with human serum, depending on cell-type]. Half-log step dilutions were performed in 96-well, U-bottom microtiter plates using a multichannel pipette to transfer and mix the suspensions, with fresh tips used for each dilution step. One-tenth (20 μl) volumes from wells of the dilution plate were then transferred to wells containing cells that had been plated in nine-tenth volumes (180 μl) of culture medium. 2) Mixed agonist–antagonist potency and efficacy were measured by mixing a TLR4 agonist with a candidate antagonist at a fixed ratio and then performing half-log step dilutions before treating HEK reporter cells. Analysis of values obtained from SEAP assays of culture supernatants was then performed as described for preparations containing agonist alone, above. 3) Competitive vs allosteric or non-competitive antagonist type was evaluated by diluting a reference agonist within a fixed concentration of a candidate inhibitor in half-log steps, treating HEK reporter cells, performing SEAP assays and then analyzing the data as described for agonist assays, above. Competitive antagonists are characterized by values that reach the same dose plateau as for a reference, full agonist, while shifting potency to higher EC50 values. […] 4) Inhibitory potency (IC50) was measured by diluting antagonists within a fixed concentration of a reference agonist, treating HEK reporter cells and performing SEAP assays as described.

human TLR4 [2] = target: T1, human TLR4; assay: Competitive vs non-competitive antagonist type: agonist diluted in a fixed concentration of inhibitor, human TLR4 HEK-Blue SEAP; set-up: host or cells: HEK-Blue (HEK293-derived) reporter cells; details: fixed ML3 3 μM, ML4A 3 μM or Lipid IVa 0.1 μM; agonist PHAD or 3D-6A-PHAD diluted from 10 μM
Experimental: as §1
Pharmacological profiles of the TLR4 reagents were generated by performing dose response curves in one of four formats. 1) Agonist potency and efficacy (EC50 and height of dose plateau, respectively) were measured by diluting TLR4 reagents successively in complete culture medium [DMEM or RPMI supplemented with fetal bovine serum (FBS) or RPMI supplemented with human serum, depending on cell-type]. […] 2) Mixed agonist–antagonist potency and efficacy were measured by mixing a TLR4 agonist with a candidate antagonist at a fixed ratio and then performing half-log step dilutions before treating HEK reporter cells. […] 4) Inhibitory potency (IC50) was measured by diluting antagonists within a fixed concentration of a reference agonist, treating HEK reporter cells and performing SEAP assays as described.

mouse RAW264.7 cells = assay: TNFα secretion (ELISA) by RAW264.7 cells; details: RAW264.7, 18-24 h
Experimental: (§2) Human and mouse HEK-Blue reporter cells express human or mouse CD14, MD2, and TLR4 and secreted embryonic alkaline phosphatase (SEAP) under control of a promoter with binding sites for NFκB and AP-1 transcription factors (InvivoGen cat. nos. hkb-htlr4 and hkb-mtlr4). Cells were cultured as directed by the supplier, with the exception that Glutamax (ThermoFisher cat. no. 10569010) was used in place of L-glutamine, and TrypLE Express (ThermoFisher cat. no. 12605010) was used to release adherent cells for each passage. […]
(§3) ELISA was performed to measure TNFα secretion by cell-lines and primary cells exposed to TLR4 reagents as a measure of receptor activation. […] Human or mouse TNα was quantified using ELISA kits as directed by the kit supplier (eBioscience cat. nos. 88-7324-77 and 88-7324-88, respectively) using an Emax plate reader and SoftMax Pro analytical software (Molecular Devices, LLC). […]
(§4) Pharmacological profiles of the TLR4 reagents were generated by performing dose response curves in one of four formats. 1) Agonist potency and efficacy (EC50 and height of dose plateau, respectively) were measured by diluting TLR4 reagents successively in complete culture medium [DMEM or RPMI supplemented with fetal bovine serum (FBS) or RPMI supplemented with human serum, depending on cell-type]. […]

human THP-1 cells = assay: TNFα secretion (ELISA) by THP-1 cells; details: THP-1, PMA-treated, 18-24 h
Experimental: as §2, §3, §4

[3] = mixed with 3D-6A-PHAD at 5:1 antagonist:agonist
[4] = mixed with PHAD, ML4A up to 30:1 and 60:1 antagonist:agonist

T1 sequence (O00206 24-839): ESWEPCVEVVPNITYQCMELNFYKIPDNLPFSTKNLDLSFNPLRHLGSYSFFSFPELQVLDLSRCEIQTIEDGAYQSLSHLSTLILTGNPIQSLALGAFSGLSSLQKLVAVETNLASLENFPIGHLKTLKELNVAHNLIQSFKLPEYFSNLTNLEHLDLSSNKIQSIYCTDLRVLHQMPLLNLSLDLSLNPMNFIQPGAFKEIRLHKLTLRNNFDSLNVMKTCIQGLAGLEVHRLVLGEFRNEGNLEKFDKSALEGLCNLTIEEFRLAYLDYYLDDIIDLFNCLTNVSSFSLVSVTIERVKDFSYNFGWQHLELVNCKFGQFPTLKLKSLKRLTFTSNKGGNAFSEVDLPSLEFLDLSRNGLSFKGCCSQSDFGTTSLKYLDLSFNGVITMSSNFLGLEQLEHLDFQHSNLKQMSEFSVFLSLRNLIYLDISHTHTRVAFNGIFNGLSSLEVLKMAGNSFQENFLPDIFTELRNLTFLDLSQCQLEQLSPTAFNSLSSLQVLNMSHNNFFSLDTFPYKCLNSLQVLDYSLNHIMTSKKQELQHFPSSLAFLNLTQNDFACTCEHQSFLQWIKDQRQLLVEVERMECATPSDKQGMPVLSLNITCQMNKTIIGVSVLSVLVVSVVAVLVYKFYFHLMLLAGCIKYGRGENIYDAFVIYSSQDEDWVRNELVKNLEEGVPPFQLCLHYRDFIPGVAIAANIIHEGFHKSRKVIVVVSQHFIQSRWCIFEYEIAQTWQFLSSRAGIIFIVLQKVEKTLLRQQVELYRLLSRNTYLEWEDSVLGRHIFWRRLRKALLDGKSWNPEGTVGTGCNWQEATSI
T1 sequence (Q9Y6Y9 17-160 limits assumed): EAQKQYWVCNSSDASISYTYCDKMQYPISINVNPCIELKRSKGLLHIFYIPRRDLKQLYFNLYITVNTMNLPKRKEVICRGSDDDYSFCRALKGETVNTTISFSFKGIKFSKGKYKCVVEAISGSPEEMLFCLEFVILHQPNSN

SMILES | effect on agonist dose curve in fixed-ratio mixture (human TLR4 [1]; [3]) | effect on agonist dose curve in fixed-ratio mixture (human TLR4 [1]; [4]) | antagonist type (human TLR4 [2]) | agonist profile, TNFα production (mouse RAW264.7 cells) | agonist profile, TNFα production (human THP-1 cells)
CCCCCCCCCCCC(=O)OC(CCCCCCCCCCC)CC(=O)NC1C(OCC2OC(O)C(NC(=O)CC(O)CCCCCCCCCCC)C(O)C2O)OC(CO)C(OP(=O)(O)O)C1OC(=O)CC(O)CCCCCCCCCCC (stereo not shown) [ML4A] | appeared to limit its activity | very modestly reduced TLR4 stimulatory activity | competitive antagonists of human TLR4 | – | –
CCCCCCCCCCCC(=O)OC(CCCCCCCCCCC)CC(=O)NC1C(OCC2OC(O)C(NC(=O)CC(O)CCCCCCCCCCC)C(O)C2O)OC(CO)C(OP(=O)(O)O)C1O (stereo not shown) [ML3] | appeared to limit its activity | very modestly reduced TLR4 stimulatory activity | competitive antagonists of human TLR4 | largely inactive | largely inactive
CCCCCCCCCCCCCCCC(=O)OC(CCCCCCCCCCC)CC(=O)NC1C(O)OC(COC2OC(CO)C(OP(=O)(O)O)C(O)C2NC(=O)CC(CCCCCCCCCCC)OC(=O)CCCCCCCCCCC)C(O)C1O (stereo not shown) [ML4B] | – | – | – | largely inactive | largely inactive
